# Experiments:
# [1] = test system: Ischemic Stroke in Rats; experiment: Ischemic stroke in rats (MCAo); assay type: in vivo, male Sprague-Dawley rats; details: 1 mg/kg/d i.p. for 5 days; for horizontal movement number compared with vehicle-treated animals / vertical movement number: day 2 after MCAo; for volume of infarction as compared to vehicle (TTC staining): day 5 after MCAo
# Experimental: Adult male Sprague-Dawley rats (250-300 g) were anesthetized with chloral hydrate (400 mg/kg i.p.). The right middle cerebral artery was occluded (MCAo) and bilateral common carotids (CCAs) were clamped for 60 minutes to generate focal ischemia in the right cerebral cortex. Core body temperature was maintained at 37° C.
# Compounds 62 and 63 and a vehicle were administered to the rats at a dose of 1 mg/kg/d (i.p.) for 5 consecutive days. The first dose was given at 90 minutes after MCAo. Each animal was placed in a 42×42×31 cm activity monitor for 1 h on day 2 after MCAo. The monitor contained 16 horizontal and 8 vertical infrared sensors spaced 2.5 cm apart. Locomotor activity was calculated using the number of infrared beams broken by the animals.
# TTC staining was performed on day 5 after MCAo to determine infarction size as described previously in Brain Research, volume 1116, issue 1, 2006, pages 159-165. Briefly, rats were decapitated and the brains were removed and sliced into 2.0-mm-thick sections. The brain slices were incubated in a 2% TTC solution (Sigma-Aldrich) for 15 minutes at room temperature and then transferred into a 4% paraformaldehyde solution for fixation. The area of infarction in each slice was measured with a digital scanner and Imagetools programs (University of Texas Health Sciences Center). The volume of infarction in each animal was obtained from the product of average slice thickness (2 mm) and sum of infarction areas in all brain slices examined.
# [2] = test system: Limb Ischemia in Mice; experiment: Limb ischemia in mice; assay type: in vivo, ICR mice; details: 6 mg/kg/d subcutaneous, twice a week, laser Doppler perfusion, seven weeks
# Experimental: Unilateral hindlimb ischemia was induced in ICR mice by ligating and excising the right femoral artery. Briefly, animals were anesthetized by an intraperitoneal injection of Xylocaine (2 mg/kg of body weight) plus Zoletil (i.e., the dissociative anesthetic Tiletamine/Zolazepam at a ratio of 1:1; 5 mg/kg of body weight). The proximal and distal portions of the femoral artery were ligated with a silk thread, and a 0.2 centimeter section of the blood vessel was removed. Hindlimb blood perfusion was measured with a laser Doppler perfusion imager system (Moor Instruments Limited, Devon, UK) before and after the surgery and was then followed on a weekly basis. Animals were subcutaneously treated with compound 4 (6 mg/kg/d, twice a week) in saline after surgery. The animals were sacrificed by cervical dislocation without sedation at the end of the seven experimental weeks. To avoid the influence of ambient light and temperature, the results are expressed as the ratio of perfusion in the right (ischemic) versus left (non-ischemic) limb.
Compound,horizontal movement number compared with vehicle-treated animals [1],vertical movement number [1],volume of infarction as compared to vehicle (TTC staining) [1],improvement of blood flow in the ischemic hindlimb as compared with the vehicle control [2]
N[C@@H](CCC(=O)N1CCC(Nc2nc(NCc3cn(CCCNCCCNC4CCCCC4)nn3)nc3ccccc23)CC1)C(=O)OCc1ccccc1 [Compound 62],significant increase,significantly increased,significantly reduced,–
c1ccc2c(NC3CCNCC3)nc(NCc3cn(CCCNCCCNC4CCCCC4)nn3)nc2c1 [Compound 4],–,–,–,20-25%
N[C@@H](CCC(=O)N1CCC(Nc2nc(NCc3cn(CCCNCCCNC4CCCCC4)nn3)nc3ccccc23)CC1)C(=O)O [Compound 63],significant increase,significantly increased,significantly reduced,–

# From patent US9926298B2, “Heterocyclic compounds and use thereof” (National Health Research Institutes, priority 2014, dated 2018)
